In US10155807B2, “Treating alcohol-mediated disorders by inhibition of RGS6” (UNIVERSITY OF IOWA RESEARCH FOUNDATION, priority 2014, dated 2018):

Key:
[1] = target: T1, RGS6:Gαo protein:protein interaction (ppi) (Homo sapiens, UniProt P49758); assay: Alpha Screen dose response, RGS6:Gαo protein:protein interaction; assay type: binding; conditions: for IC50: Alpha Screen dose response, truncated RGS6 construct, read-out: IC50 for inhibition of RGS6:Gαo ppi; for selectivity for inhibiting the RGS6:Gαo ppi over the assay (control): ppi vs assay counter-screen
T1 sequence (P49758 336-441 limits assumed): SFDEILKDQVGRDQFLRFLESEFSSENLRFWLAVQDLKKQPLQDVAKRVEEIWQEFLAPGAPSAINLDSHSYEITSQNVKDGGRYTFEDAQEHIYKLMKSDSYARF
Text: A high throughput screen based upon the protein-protein interaction between RGS6 and its cognate G protein has been developed. This is an approach used for other RGS proteins (Bodle et al. Future Med Chem 5: 995-1007, 2013; Mackie et al. J Biomol Screen 16: 869-877, 2011; Monroy et al. PloS one 8: e62247, 2013). Briefly, human RGS6 and G protein from E. coli is expressed and purified, which are then chemically modified to attach to microspheres. These microspheres (AlphaScreen) are then dispensed into high density experimental plates, with either 384 or 1536 wells per plate. Into each of these wells, an individual compound is dispensed, and through the use of a chemiluminescent reaction between the RGS6 and G protein coated beads, whether or not the two proteins are interacting is determined. […] A critical measure is the “Z-factor,” which indicates the ability to detect an inhibitor based on the screening signal strength, and the difference between positive and negative control values. A Z-factor between 0.5 and 1 is considered to be acceptable, and the Z-factor for the RGS6 assay is quite good, at 0.61. Using this method, a screen of 2320 compounds has been completed in 384-well plates. […] These compounds are being evaluated in testing for specificity and effectiveness in functional assays. Accessing the much larger 50,000 compound Chembridge library held by UI HTS will allow much larger coverage of “chemical space” to sample chemotypes that may represent RGS6 inhibitors with drug like properties.
As described herein, a role for RGS6 in the regulation of alcohol dependency traits, and that inhibition of this protein may act as a therapeutic intervention for the disease of alcohol addiction. As such, 2320 compounds were screened in an initial effort to discover small molecule inhibitors of the RGS6:Gαo protein:protein interaction (ppi). Alpha screen technology was used in this screen, where both proteins are conjugated to their respective donor or acceptor beads and if a ppi exists the proximity of the beads to each other results in emission of light at 520-620 nm. If a small molecule disrupts the ppi, then the intensity of light emitted is diminished.
IC50 values were obtained from dose response experiments using Alpha Screen technology. Compounds were determined to be promising based on these IC50 values, and based on the selectivity the compounds had for inhibiting the ppi versus inhibiting the assay. Since the Alpha Screen assay utilizes emitted light produced by singlet oxygen interacting with the acceptor bead as a determinant of ppi, highly colored compounds, or compounds that act as oxygen scavengers can produce false positive inhibition of the assay. […] This was not determined for UI1956.
The compounds identified in this screen represent the first generation of RGS6 inhibitors. A larger screening campaign will yield molecules that are both potent and selective for inhibiting RGS6 while containing minimal reactive substructures thus cutting down on the possible side effects that reactive molecules often produce. An additional screen will utilize the full RGS6 protein. This differs from the preliminary screen above in that a truncated RGS6 construct was used for ease of purification. […]

RGS6−/− mice [2] = assay: Short-term free choice alcohol consumption with daily GABABR antagonist treatment; assay type: in vivo; conditions: 12.5 mg/kg i.p. daily; 8% EtOH free choice phase
Text: RGS6 was identified as a critical negative regulator of cerebellum GABABR-regulated motor behavior (Maity et al., J Biol Chem. 2012; 287(7):4972-81). The involvement of GABABR signaling in the reduction in alcohol drinking observed in mice lacking RGS6 was investigated. […] Both the time course of GABABR-induced activation and deactivation of the mitogen activated protein kinase (MAPK) signaling cascade were pro-longed in the cortex of RGS6^−/− mice. […] To directly test the involvement of GABABR signaling in the reduction in alcohol seeking behavior seen in RGS6^−/− mice, the short-term free choice EtOH consumption paradigm was repeated with the addition of daily GABABR antagonist treatments.
Short-term alcohol consumption was measured in WT and RGS6^−/− mice essentially as previously described (Lockridge et al., Alcohol. 2012; 46(4):389-400). First, mice were individually housed for 2 days prior to the experiment. Each cage was then outfitted with two drinking bottles made from graduated serological pipettes sealed with parafilm to prevent evaporation and attached to each cage. […] Volume levels were recorded daily, tubes refilled and mice weighed. […] Alcohol (or saccharin/quinine) preference was calculated by dividing the EtOH volume consumed by the total fluid intake.

[3] = tested on: neonatal VCM isolated from WT and RGS6−/− mice; conditions: 1 μM, 1.5 hour pre-treatment; 200 mM EtOH 24 hours; WT vs RGS6−/− VCM
Method: Twenty-four hours after isolation and plating, cells were treated with 200 mM EtOH (24 hours) in the presence or absence of DPI (1 μM, 1.5 hour pre-treatment) where indicated. […] Intracellular ROS generation was estimated using the cell-permeable oxidation-sensitive probe, CM-H2DCFDA (Sigma) as described previously (Maity et al., J Biol Chem. 2011; 286(2):1409-19). Briefly, cells were harvested by centrifugation, washed three times with ice-cold PBS, re-suspended in PBS and incubated with 5 μM CM-H2DCFDA for 20 minutes at 37° C. After incubation cells were again washed and lysed in PBS with 1% Tween 20. ROS level was determined at the ratio of dichlorofluorescein excitation at 480 nm to emission at 530 nm.

RGS6−/− mice [4] = assay: Activity measurement in home cage after baclofen (sedation); assay type: in vivo; conditions: 10 mg/kg i.p.; immobility time over 20 min
Method: After drug treatment mice were placed back in their home cage and behavior videotaped for 20 min. Videos were scored for total immobility time (no discernable ambulation, grooming, social or other behaviors) by an observer blinded to mouse genotype. Data are presented as percent total time spent immobile.

Row | Compound | IC50 [1] [µM] | selectivity for inhibiting the RGS6:Gαo ppi over the assay (control) [1] [fold] | further results
1 | Oc1ccc2c(c1)OCC1(O)Cc3cc(O)c(O)cc3C21 (centres unmarked) [UI1910] | 17 | 30 | 
2 | O=C1C=C2C[C@@]3(O)COc4cc(O)ccc4C3=C2C=C1O [UI1935] | 49 | 5 | 
3 | O=c1c(-c2cc(O)c(O)c(O)c2)coc2cc(O)c(O)c(O)c12 [UI1956] | 42 |  | 
4 | CC1(C)CO[C@@H](CC(=O)O)CN1 [SCH-50911] |  |  | effect on reduced EtOH consumption of RGS6−/− mice (RGS6−/− mice [2]): partially reversed the reduction in alcohol consumption
5 | c1ccc2c(c1)[I+]c1ccccc1-2 [DPI, diphenyleneiodonium] |  |  | alcohol-induced ROS generation in VCM [3]: significantly reduced ROS generation in WT but not RGS6^−/− VCM
6 | NCC(CC(=O)O)c1ccc(Cl)cc1 (centres unmarked) [baclofen] |  |  | sedative effect in RGS6−/− mice (RGS6−/− mice [4]): remarkably sensitized to the sedative effects
